The text below walks through data of article PMC6713164, “Inhibitory effects of flavonoids isolated from Sophora flavescens on indoleamine 2,3-dioxygenase 1 activity” (Journal of Enzyme Inhibition and Medicinal Chemistry, 2019).

Test [1] has as its target T1, IDO1 (Homo sapiens, UniProt P14902). Put plainly: IDO1 enzyme assay. The class given is biochemical. Set-up: The full-length of IDO1 gene was amplified by PCR; His tag; made in house; host or cells: Escherichia coli T7 strain, vector pET28a. As to conditions: recombinant human IDO1, L-Trp 200 µM, 37 °C, 1 h, mean ± SD; for IC50: read-out: His-hIDO1 IC50. An excerpt:
The Escherihia coli DH5α and T7 strain were used for gene cloning and protein production, respectively. The human IDO1 clone was provided from Korea Human Gene Bank, Medical Genomics Research Center, KRIBB, Korea. The full-length of IDO1 gene was amplified by PCR using pfu DNA polymerase (Thermo Fisher, , Waltham, MA). The PCR product from IDO1 mRNA was cloned into expression vector pET28a to obtain pET28a-IDO1 and confirmed using DNA sequencing (Cosmogenetech, Seoul, Korea). […] The expressed IDO1 protein was purified using Ni-NTA agarose (Qiagen, Valencia, CA) at 4 °C. The eluted IDO1 protein was dialysed using storage buffer (20 mM Tris-HCl buffer (pH 8.0 and 200 mM NaCl)). The purified IDO1 protein was analysed with SDS-PAGE.
The enzyme assays were performed with previous descripted in Takikawa et al.[23]. Briefly, 200 µL of the reaction mixture contained potassium phosphate buffer (50 mM, pH 6.5), ascorbic acid (20 mM), methylene blue (10 µM), catalase (10 mM), purified recombinant human IDO1 enzyme (5 µg/mL) and L-Trp (200 µM). The metabolites were serially diluted in dimethyl sulfoxide (DMSO, 0.5%, v/v) and transferred to a 96-well plates. […] The plates were centrifuged at 4000 rpm for 15 min to remove debris. Next, the supernatant (125 µL) from each well was transferred to a 96-well plates. p-dimethylaminobenzaldehyde (125 µL; 2%, v/v) in acetic acid was then added to each well, and the absorbance value of the plate was read at a wavelength of 480 nm using a SpectraMAX-190 ELISA reader (Molecular Devices, Sunnyvale, CA).

In test [2] the target is T1, IDO1. Put plainly: Cell-based IDO1 assay (Kyn production) in IFN-γ-treated HeLa cells. Set-up: to induce endogenous IDO1 expression; endogenous in cells; host or cells: HeLa cells stimulated with IFN-γ. As to conditions: IFN-γ-treated (50 ng/mL, 24 h) HeLa cells, compound 6 h; mean ± SD; read-out: IC50 against cell-based IDO1 (Kyn production). The method, then: HeLa (Human cervical cancer cells) cells were purchased from the American Type Culture Collection (ATCC) and cultured in DMEM supplemented with fetal bovine serum (FBS, 10%) and penicillin–streptomycin (1%).
HeLa cells were seeded into 48-well plates (2 × 10^4 cells/well). Next, the cells were stimulated with human recombinant IFN-γ (50 ng/mL, R&D Systems, Minneapolis, MN) in complete DMEM for 24 h. After replacing the medium with DMEM containing IFN-γ, the cells were treated with the flavonoids (1–6) or DMSO (0.5%, v/v) for 6 h, and then the supernatant (125 µL) from each well was transferred to a 96-well plate. The cell-based assay was similarly performed to the IDO1 enzyme assay.

Test [3] concerns the target T1, IDO1. Put plainly: Thermal shift assay (SYPRO-Orange). It is filed as binding. As to conditions: 30 µM compound, without L-Trp; read-out: increase of mean melting temperature (ΔTm) compared to DMSO-treated group. The method, then:
The thermal stability of proteins was measured by SYPRO-Orange (Thermo Fisher Scientific, Waltham, MA) as previously described in Soderhole et al.[24]. Briefly, IDO 1 enzyme (5 µg/mL) was mixed with 30 µM of kushenol F (KF, 4), (2S)-2'-methoxy kurarinone (MK, 5), and kushenol E (KE, 6), or serially diluted KE (6) in 20 µL reaction buffer containing potassium phosphate buffer (50 mM) and sodium chloride (100 mM), and then incubated for 1 h. The measurement of protein denaturation via an increase in temperature was determined using real-time PCR device (CFX96 Real Time System, BioRad, Hercules, CA) using the FRET channel. In the presence of IDO1 enzyme, SYPRO-Orange has a maximum excitation near 490 nm and a maximum emission near 600 nm. The heating rate and fluorescence reading were 0.5 °C/10 s depending on the temperature range 25–95 °C.

In test [4] the target is T1, IDO1. Put plainly: IDO1 enzyme kinetics assay (Lineweaver–Burk, Dixon plots). The class given is biochemical. As to conditions: L-Trp 0–50 µM, flavonoids 0–45 µM, read-out: κi. The method, then: The kinetics assay was performed by adding purified protein to the reaction mixture (200 µL) which contained a final concentration of potassium phosphate buffer (50 mM, pH 6.5), ascorbic acid (20 mM), catalase (10 mM), methylene blue (10 µM), and distilled water up to 200 µL. Various concentrations of L-Trp as substrate of IDO1 were added to the reaction mixture with four different concentrations of flavonoids (0–45 µM). After incubation at 37 °C for 1 h, the dissociation constant (κi) of the three flavonoids were determined by measuring the activity at five concentrations of L-Trp (0 to 50 µM).

The target in test [5] is T2, His-IDO1 (P314A) (Homo sapiens, UniProt P14902, P314A).
T2 construct: The full-length of IDO1 gene was amplified by PCR; His tag; made in house
T2 sequence (P14902 whole entry P314A): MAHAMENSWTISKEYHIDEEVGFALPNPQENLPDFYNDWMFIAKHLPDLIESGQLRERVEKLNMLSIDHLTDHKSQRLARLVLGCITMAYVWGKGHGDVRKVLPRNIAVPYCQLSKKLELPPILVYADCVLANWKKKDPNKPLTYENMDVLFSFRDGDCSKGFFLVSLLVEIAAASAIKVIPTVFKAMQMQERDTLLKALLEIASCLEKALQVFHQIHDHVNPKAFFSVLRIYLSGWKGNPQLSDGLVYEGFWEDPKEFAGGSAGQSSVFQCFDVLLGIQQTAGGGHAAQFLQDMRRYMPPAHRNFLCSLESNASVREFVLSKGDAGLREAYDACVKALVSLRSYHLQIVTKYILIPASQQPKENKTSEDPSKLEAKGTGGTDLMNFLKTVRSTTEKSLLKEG
Put plainly: Surface plasmon resonance (SPR) assay, His-IDO1 (P314A). It is filed as binding. The protocol: (§1) The SPR assay was performed with 10 mM stock solution and five serially diluted concentrations of KE (6) in PBS and 5% DMSO at 25 °C using a Reichert instrument (SR7500DC System, USA) using a sensor chip CM5 (GE Healthcare, Chicago, IL) (Woojung BSC Inc, Seoul, Korea). Amine coupling of His-IDO1 (WT and P314A) was performed with 0.2 M 1-ethyl-3-(3-dimethylaminopropyl)-carbodiimide, 0.05 M N-hydroxysuccinimide, and 1 M ethanolamine (ph 8.5, GE Healthcare, Chicago, IL). The results were analysed using Scrubber software (version 2.0, BioLogic Software, Mundelein, IL).
(§2) Point mutations were introduced using the Muta-Direct^TM mutagenesis kit (iNtRON, Seuol, Korea). Oligonucleotides for generation of Pro182 (P182A), Phe185 (F185A), double mutation (P182A and F185A), and Pro 314 (P314A) to alanine mutants (mutated residues are underlined) were as follows: • For P182A: 5′-[…]-3′, 5′-[…]-3′. • For F185A: 5′-[…]-3′, 5′-[…]-3′. • For double mutation (P182A and F185A): 5′-[…]-3′, 5′-[…]-3′. • For P314A: 5′- […]-3′, 5′- […]-3′.
(Surface plasmon resonance follows binding to a sensor surface in real time, without labels.)

For test [6], the target named is T2, His-IDO1 (P314A). Put plainly: Mutagenesis assay: IDO1 enzyme assay with P314A mutant. The class given is biochemical. As to conditions: mutant form of His-IDO1 (P314A). The method, then: The enzyme assays were performed with previous descripted in Takikawa et al.[23]. […]. The metabolites were serially diluted in dimethyl sulfoxide (DMSO, 0.5%, v/v) and transferred to a 96-well plates. The reaction was conducted at 37 °C for 1 h and stopped by adding 40 µL of trichloroacetic acid (30%); the solution was then heated at 65 °C for 15 min. The plates were centrifuged at 4000 rpm for 15 min to remove debris. Next, the supernatant (125 µL) from each well was transferred to a 96-well plates. p-dimethylaminobenzaldehyde (125 µL; 2%, v/v) in acetic acid was then added to each well, and the absorbance value of the plate was read at a wavelength of 480 nm using a SpectraMAX-190 ELISA reader (Molecular Devices, Sunnyvale, CA).
as §2

Test [7] has as its target T3, His-IDO1 (WT) (Homo sapiens, UniProt P14902).
T3 construct: The full-length of IDO1 gene was amplified by PCR; His tag; made in house; host or cells: Escherichia coli T7 strain, vector pET28a
Put plainly: Surface plasmon resonance (SPR) assay, His-IDO1 (WT). It is filed as binding. The method, then: as §1

Where [8] appears, read: standard error in parentheses, read-out: Ka.

T1 sequence (P14902 whole entry): as the sequence (P14902 whole entry P314A) above, with A314P counted along it
T3 sequence (P14902 whole entry): as the sequence (P14902 whole entry P314A) above, with A314P counted along it

In general, IC50 refers to the point on the concentration scale where inhibition reaches its midpoint. As a reminder, the ΔTm is the change in melting temperature against a reference sample. With `C=C(C)[C@H](CC=C(C)C)Cc1c(O)cc(OC)c2c1O[C@H](c1ccc(O)cc1OC)CC2=O` [(2S)-2′-Methoxy kurarinone (MK, 5), (2S)-2'-methoxy kurarinone], the IC50 in test [1] was 31.4 ± 1.3 µM; in test [2] it was 23.8 ± 1.6 µM. Moreover, in test [3], the ΔTm at 30 µM stood at 0.4 °C. In addition, in test [4], the Ki was 13.7 ± 0.03 µM.

With `C=C(C)[C@H](CC=C(C)C)Cc1c(O)cc(OC)c2c1O[C@H](c1ccc(O)cc1O)CC2=O` [(−)-Kurarinone (3), (−)-kurarinone], the IC50 in test [1] is 23.4 ± 1.3 µM; in test [2], 74.9 ± 4.9 µM.

The Kd is the concentration at which binding is half-saturated. A lower Kd goes with tighter binding. Consider `CC(C)=CCc1c(O)c(CC=C(C)C)c2c(c1O)C(=O)C[C@@H](c1ccc(O)cc1O)O2` [Kushenol E (KE, 6), kushenol E], for which the Kd in test [5] (25 °C, PBS 5% DMSO) amounted to 8.9 ± 0.2 µM; in test [7] (25 °C, PBS 5% DMSO), 6.5 ± 0.1 µM. Moreover, the values for the kon in test [5] (setting [8]) and in test [7] (setting [8]) were 120 M⁻¹ s⁻¹ and 136 M⁻¹ s⁻¹, respectively. The IC50 in test [1] was determined as 7.7 ± 6.2 µM; in test [2], 4.3 ± 0.3 µM; in test [6], 29.8 ± 1.8 µM. For the same compound, in test [3], the ΔTm at 30 µM was found to be 5.7 °C. Also, the Ki in test [4] was determined as 9.5 ± 0.6 µM.

As to `C=C(C)[C@H](CC=C(C)C)Cc1c(O)cc(O)c2c1O[C@H](c1ccc(O)cc1O)CC2=O` [Kushenol F (KF, 4), kushenol F], the values for the IC50 in test [1] and in test [2] were 25.4 ± 4.4 µM and 28.3 ± 0.3 µM, respectively. Also, in test [3], the ΔTm at 30 µM was determined as 1.5 °C. For the same compound, the Ki in test [4] was found to be 20.2 ± 3.1 µM.

In the case of `CC(C)=CCc1c(O)cc(O)c2c(=O)c(O)c(-c3ccc(O)cc3)oc12` [Noranhydroicaritin (1), noranhydroicaritin], the IC50 in test [1] worked out at 23.5 ± 2.2 µM; in test [2] it was 42.2 ± 3.5 µM.

With `CC(C)=CCc1c(O)cc(O)c2c1OC(c1ccc(O)cc1)CC2=O` (stereo not drawn) [Sophoraflavanone B (2), sophoraflavanone B], the IC50 came out at 19.3 ± 1.1 µM in test [1] and 83.6 ± 10.8 µM in test [2].

For the compound `O=C1CC(c2ccc(O)cc2O)Oc2cc(O)cc(O)c21` (stereo not drawn) [Steppogenin, steppogenin, reference compound], the “His-hIDO1 IC50” value in test [1] is “does not affect IDO1 inhibitory activity”.
